Data reported in patent US20150079105A1, “TREATMENT OF ACUTE INFLAMMATION IN THE RESPIRATORY TRACT” (UCL Business PLC, priority 2012, published 2015).
Entries after “also recorded” stand apart in the source; their conditions may differ.

What was measured:
naïve mice = assay: Intranasal administration of recombinant CCL2 or CCL7 to naïve mice, BAL fluid cell counts; assay type: in vivo; conditions: 500 ng/mouse i.n., 3 h; for total cell number recovered from BAL fluid: compared to saline treated controls
Experimental: FIG. 15. Naïve mice were administered with either rCCL2 or rCCL7 (500 ng/mouse, i.n.) and 3 h later BAL fluid was recovered. BAL fluid total cell counts (A) and total neutrophils (B) were calculated from differential cell counts performed on cytospin preparations. The percentage of neutrophils in BAL fluid was also calculated (C). Differential cell counts were performed on cytospin preparations following saline (D), rCCL2 (E) or rCCL7 (F) administration. Data were analysed by one way ANOVA with Newman-Keuls post hoc test: *p<0.05, **p<0.01,*** p<0.001. Arrows indicate: N, neutrophil; M, monocyte/macrophage.
In order to determine the whether CCL2 and CCL7 are able to directly recruit leukocytes into the lung, recombinant CCL2 or CCL7 was administered into the lungs of naïve mice and sampled the BAL fluid after 3 h. […] Differential cell counts were performed on cytospin preparations following saline (FIG. 15D), rCCL2 (FIG. 15E) or rCCL7 (FIG. 15F) administration.

human neutrophils = assay: Human neutrophil chemotaxis (ChemoTX) towards recombinant human chemokines; assay type: cell-based; conditions: 50 ng/ml; 45 min; 5×10^4 neutrophils per well
Experimental: FIG. 17. Healthy human volunteers were challenged with nebulized 0.9% saline […] (final LPS dose was 50 μg) and BAL fluid collected 6 hours later. CCL7 protein levels in BAL fluid from saline-treated or LPS-challenged human volunteers were measured by ELISA (a). Human neutrophil chemotaxis was measured across 5 μm membranes (ChemoTX, NeuroProbe) in response to recombinant human (rh) CXCL8 or rhCCL7 (b). Neutrophil chemotaxis towards LPS-treated human BAL fluid was measured in the presence of neutralizing anti-CXCL8 or anti-CCL7 antibodies (c). BAL fluid was collected from patients suffering with ALI on intensive care units. CCL7 protein (d) and CCL2 protein (f) in ALI BAL fluid was measured by ELISA. Neutrophil chemotaxis towards BAL fluid obtained from patients with ALI was measured in the presence of neutralizing anti-CXCL8 and ant-CCL7 antibodies (e). […]
Although it is widely accepted that CXCL8 (IL-8) is an important chemokine in human neutrophilic lung disease (Miller, E. J. et al Am. Rev. Respir. Dis. 146, 427-432 (1992)), it is far from clear whether other chemokines are associated with disease pathogenesis. […] For these studies, CCL7 was measured by ELISA in BAL fluid from healthy volunteers challenged with LPS (50 μg) at 6 hours as previously described (Shyamsundar, M. et al Am. J. Respir. Crit Care Med. 179, 1107-1114 (2009)). […]

LPS challenged mice = assay: LPS-induced acute lung inflammation in mice: BAL fluid cell counts, MPO, serum albumin; assay type: in vivo; conditions: 10 mg/kg i.p. immediately after LPS challenge; 3 h

Compound	recruitment of neutrophils into lung airspaces (naïve mice)	total cell number recovered from BAL fluid (naïve mice)	migration of neutrophils compared to media alone (human neutrophils)	further results
rCCL7: recombinant CCL7	resulted in the recruitment of a neutrophils	increased	–	neutrophils as a percentage of total cells recovered from BAL fluid (naïve mice): preferential accumulation of neutrophils compared to rCCL2
CXCL8: Recombinant human CXCL8 (IL-8) (Peprotech)	–	–	increased	–
rCCL2: recombinant CCL2	resulted in the recruitment of a neutrophils	increased; also recorded: greater number of leukocytes compared to rCCL7	–	–
CCL7: Recombinant human CCL7 (Peprotech)	–	–	did not influence	–
CCOC(=O)N[C@@H]1CC[C@@H]2[C@@H](C1)C[C@H]1C(=O)O[C@H](C)[C@H]1[C@H]2/C=C/c1ccc(-c2cccc(F)c2)cn1 [SCH530348]	–	–	–	neutrophil numbers in the airspaces (BAL fluid) (LPS challenged mice): significantly decreased; total cell numbers in the airspaces (BAL fluid) (LPS challenged mice): significantly decreased
